Among the data in patent publication US20210317092A1 (BAYER PHARMA AKTIENGESELLSCHAFT, priority 2016, published 2021) are IC50 values, retold here.

Read-outs that look alike come from different tables or passages of the source.

The target of the assay is T1, human Bradykinin B1 receptor (Homo sapiens, UniProt P46663).
T1 construct: host or cells: CHO-K1
T1 sequence (P46663 1-353): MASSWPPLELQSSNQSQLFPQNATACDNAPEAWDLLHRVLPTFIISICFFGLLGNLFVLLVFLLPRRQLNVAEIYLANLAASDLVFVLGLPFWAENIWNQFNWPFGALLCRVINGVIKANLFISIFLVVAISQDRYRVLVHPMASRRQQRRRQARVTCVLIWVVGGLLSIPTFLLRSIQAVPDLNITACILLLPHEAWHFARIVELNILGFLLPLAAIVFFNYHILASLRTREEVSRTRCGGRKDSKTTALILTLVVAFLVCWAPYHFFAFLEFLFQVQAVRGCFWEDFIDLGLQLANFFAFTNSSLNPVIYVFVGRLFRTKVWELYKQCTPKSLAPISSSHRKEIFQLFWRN
The assay can be described thus: Calcium flux Assay (FLIPR) with recombinant CHO-K1 cells expressing human Bradykinin B1 receptor, in presence (hB1 IC50) or absence (hB1 free IC50) of 0.1% BSA. Format: cell-based. (Calcium assays in cells follow changes in intracellular calcium, usually with a dye or a luminescent sensor.)

The mark [1] stands for this setting: in absence of 0.1% BSA, read-out: hB1 free IC50.
[2] abbreviates: in presence of 0.1% BSA, read-out: hB1 IC50.

What is called IC50 is the point on the concentration scale where inhibition reaches its midpoint. As for `O=C(Nc1ccc(-c2ccnc(C(F)(F)F)c2)c(-c2nnn[nH]2)c1)C1(c2ccc(F)cn2)CC1` [Example 174, 1-(5-fluoropyridin-2-yl)-N-{3-(1H-tetrazol-5-yl)-4-[2-(trifluoromethyl)pyridin-4-yl]phenyl} cyclopropane-carboxamide], the IC50 under setting [1] is 1110 nM.

On to `O=C(Nc1ccc(-c2ccnc(C(F)(F)F)c2)c(-c2nnn[nH]2)c1)C1(c2ccc(F)c(Cl)c2)CC1` [Example 176, 1-(3-chloro-4-fluorophenyl)-N-{3-(1H-tetrazol-5-yl)-4-[2-(trifluoromethyl)pyridin-4-yl]phenyl} cyclopropane-carboxamide], for which the IC50 under setting [1] worked out at 258 nM.

Take `O=C(Nc1ccc(-c2ccnc(C(F)(F)F)c2)c(-c2nnn[nH]2)c1)C1(c2ccc(Cl)c(F)c2)CC1` [Example 177, 1-(4-chloro-3-fluorophenyl)-N-{3-(1H-tetrazol-5-yl)-4-[2-(trifluoromethyl)pyridin-4-yl]phenyl} cyclopropane-carboxamide]: the IC50 under setting [1] was found to be 274 nM.

Take `O=C(Nc1ccc(-c2ccnc(C(F)(F)F)c2)c(-c2nnn[nH]2)c1)C1(c2ccc(F)cc2F)CC1` [Example 178, 1-(2,4-difluorophenyl)-N-{3-(1H-tetrazol-5-yl)-4-[2-(trifluoromethyl)pyridin-4-yl]phenyl} cyclopropane-carboxamide]: under setting [1], the IC50 stood at 287 nM.

In the case of `O=C(Nc1ccc(-c2ccnc(C(F)(F)F)c2)c(-c2nnn[nH]2)c1)C1(c2cc(F)ccc2F)CC1` [Example 179], the IC50 under setting [1] turned out to be 393 nM.

`COc1cc(C2(C(=O)Nc3ccc(-c4ccnc(C(F)(F)F)c4)c(-c4nnn[nH]4)c3)CC2)ccc1F` [Example 180, 1-(4-fluoro-3-methoxyphenyl)-N-{3-(1H-tetrazol-5-yl)-4-[2-(trifluoromethyl)pyridin-4-yl]phenyl} cyclopropane-carboxamide]: the IC50 under setting [1] amounted to 768 nM.

On to `O=C(Nc1ccc(-c2ccnc(F)c2)c(-c2nnn[nH]2)c1)C1(c2cccc(Cl)c2)CC1` [Example 182, 1-(3-chlorophenyl)-N-[4-(2-fluoropyridin-4-yl)-3-(1H-tetrazol-5-yl)phenyl] cyclopropane-carboxamide], for which the IC50 turned out to be 185 nM under setting [1] and 1350 nM under setting [2].

In the case of `O=C(Nc1ccc(-c2cnc(NC3CC3)nc2)c(-c2nnn[nH]2)c1)C1(c2cccc(Cl)c2)CC1` [Example 185], under setting [1], the IC50 was found to be 251 nM.

With `N#Cc1ccc(-c2ccc(NC(=O)C3(c4cccc(Cl)c4)CC3)cc2-c2nnn[nH]2)cc1F` [Example 186, 1-(3-chlorophenyl)-N-[4′-cyano-3′-fluoro-2-(1H-tetrazol-5-yl)biphenyl-4-yl]cyclopropane carboxamide], the IC50 under setting [1] came out at 252 nM.

Turning to `COc1ncccc1-c1ccc(NC(=O)C2(c3cccc(Cl)c3)CC2)cc1-c1nnn[nH]1` [Example 187, 1-(3-chlorophenyl)-N-[4-(2-methoxypyridin-3-yl)-3-(1H-tetrazol-5-yl)phenyl] cyclopropane-carboxamide], the IC50 under setting [1] turned out to be 1620 nM.

As to `CO[C@H]1CC[C@@H](c2ccc(NC(=O)C3(c4cccc(Cl)c4F)CC3)cc2-c2nnn[nH]2)CC1` [Example 189, 1-(3-chloro-2-fluorophenyl)-N-[4-(cis-4-methoxy-cyclohexyl)-3-(1H-tetrazol-5-yl)phenyl] cyclopropane-carboxamide], the IC50 under setting [1] was found to be 2350 nM.

In the case of `Cc1ncc(-c2ccc(NC(=O)C3(c4cccc(Cl)c4)CC3)cc2-c2nnn[nH]2)cn1` [Example 194, 1-(3-chlorophenyl)-N-[4-(2-methylpyrimidin-5-yl)-3-(1H-tetrazol-5-yl)phenyl] cyclopropane-carboxamide], the IC50 is, setting by setting: under setting [1], 569 nM; under setting [2], 575 nM.

On to `Cc1ncc(-c2ccc(NC(=O)C3(c4cccc(Cl)c4F)CC3)cc2-c2nnn[nH]2)cn1` [Example 195, 1-(3-chloro-2-fluorophenyl)-N-[4-(2-methylpyrimidin-5-yl)-3-(1H-tetrazol-5-yl)phenyl] cyclopropane-carboxamide], for which the half-inhibitory concentration (IC50) reads like this: under setting [1], 183 nM; under setting [2], 311 nM.

With `O=C(Nc1ccc(-c2cnc(C(F)(F)F)nc2)c(-c2nnn[nH]2)c1)C1(c2cccc(Cl)c2F)CC1` [Example 197, 1-(3-chloro-2-fluorophenyl)-N-{3-(1H-tetrazol-5-yl)-4-[2-(trifluoromethyl)pyrimidin-5-yl]phenyl} cyclopropane-carboxamide], the IC50 is, setting by setting: under setting [1], 493 nM; under setting [2], 993 nM.

Regarding `O=C(Nc1ccc(-c2cnc(C(F)(F)F)nc2)c(-c2nnn[nH]2)c1)C1(c2ccc(OC(F)(F)F)cc2)CC1` [Example 198, N-{3-(1H-tetrazol-5-yl)-4-[2-(trifluoromethyl)pyrimidin-5-yl]phenyl}-1-[4-(trifluoromethoxy)phenyl] cyclopropane-carboxamide], under setting [1], the IC50 was found to be 943 nM.

Turning to `COc1cc(-c2ccc(NC(=O)C3(c4cccc(Cl)c4)CC3)cc2-c2nnn[nH]2)cc(C(F)(F)F)n1` [Example 199, 1-(3-chlorophenyl)-N-{4-[2-methoxy-6-(trifluoromethyl)pyridin-4-yl]-3-(1H-tetrazol-5-yl)phenyl} cyclopropane-carboxamide], the IC50 is, setting by setting: under setting [1], 1580 nM; under setting [2], 2400 nM.

Consider `CS(=O)(=O)c1ccc(-c2ccc(NC(=O)C3(c4cccc(Cl)c4)CC3)cc2-c2nnn[nH]2)cn1` [Example 200, 1-(3-chlorophenyl)-N-{4-[6-(methylsulfonyl)pyridin-3-yl]-3-(1H-tetrazol-5-yl)phenyl} cyclopropane-carboxamide], for which the IC50 under setting [1] was 1170 nM.

Regarding `CS(=O)(=O)c1ccc(-c2ccc(NC(=O)C3(c4ccc(C(F)(F)F)cc4F)CC3)cc2-c2nnn[nH]2)cn1` [Example 201, 1-[2-fluoro-4-(trifluoromethyl)phenyl]-N-{4-[6-(methylsulfonyl)pyridin-3-yl]-3-(1H-tetrazol-5-yl)phenyl} cyclopropane-carboxamide], under setting [1], the half-maximal inhibitory concentration (IC50) is 374 nM.

For the compound `O=C(Nc1ccc(-c2ccc(C(F)(F)F)nc2)c(-c2nnn[nH]2)c1)C1(c2ccc(F)cc2)CC1` [Example 204, 1-(4-fluorophenyl)-N-{3-(1H-tetrazol-5-yl)-4-[6-(trifluoromethyl)pyridin-3-yl]phenyl} cyclopropane-carboxamide], under setting [1], the IC50 was found to be 125 nM.

In the case of `O=C(Nc1ccc(-c2cnc(C(F)(F)F)nc2)c(-c2nnn[nH]2)c1)C1(c2ccc(C(F)(F)F)cc2)CC1` [Example 205, N-{3-(1H-tetrazol-5-yl)-4-[2-(trifluoromethyl)pyrimidin-5-yl]phenyl)-1-[4-(trifluoromethyl)phenyl] cyclopropane-carboxamide], under setting [1], the IC50 came out at 170 nM.

Regarding `O=C(Nc1ccc(-c2ccnc(C(F)F)c2)c(-c2nnn[nH]2)c1)C1(c2ccc(F)c(F)c2)CC1` [Example 206, N-{4-[2-(difluoromethyl)pyridin-4-yl]-3-(1H-tetrazol-5-yl)phenyl}-1-(3,4-difluorophenyl) cyclopropane-carboxamide], under setting [1], the IC50 was determined as 485 nM.

With `Cc1cc(-c2ccc(NC(=O)C3(c4cccc(Cl)c4)CC3)cc2-c2nnn[nH]2)ccn1` [Example 210, 1-(3-chlorophenyl)-N-[4-(2-methylpyridin-4-yl)-3-(1H-tetrazol-5-yl)phenyl] cyclopropane-carboxamide], the concentration for half-maximal inhibition (IC50) under setting [1] was 131 nM and the IC50 under setting [2] stood at 78 nM.

Turning to `CCOc1ccc(-c2ncc(NC(=O)C3(c4ccc(C(F)(F)F)cc4F)CC3)cc2-c2nnn[nH]2)cn1` [Example 219, N-[6′-ethoxy-3-(1H-tetrazol-5-yl)-2,3′-bipyridin-5-yl]-1-[2-fluoro-4-(trifluoromethyl)phenyl] cyclopropane-carboxamide], the IC50 under setting [1] is 86.8 nM.

With `O=C(Nc1cc(-c2nnn[nH]2)c(-c2ccc(C(F)(F)F)nc2)cc1O)C1(c2ccc(Cl)cc2F)CC1` [Example 221, 1-(4-chloro-2-fluorophenyl)-N-{2-hydroxy-5-(1H-tetrazol-5-yl)-4-[6-(trifluoromethyl)pyridin-3-yl]phenyl} cyclopropane-carboxamide], the IC50 under setting [2] stood at 160 nM.

For `O=C(Nc1cc(-c2nnn[nH]2)c(-c2ccc(C(F)(F)F)nc2)cc1O)C1(c2cc(F)cc(Cl)c2)CC1` [Example 223, 1-(3-chloro-5-fluorophenyl)-N-{2-hydroxy-5-(1H-tetrazol-5-yl)-4-[6-(trifluoromethyl)pyridin-3-yl]phenyl} cyclopropane-carboxamide], the IC50 under setting [2] came to 84 nM.

Consider `O=C(Nc1cc(-c2nnn[nH]2)c(-c2ccc(C(F)(F)F)nc2)cc1O)C1(c2cccc(Cl)c2F)CC1` [Example 225, 1-(3-chloro-2-fluorophenyl)-N-{2-hydroxy-5-(1H-tetrazol-5-yl)-4-[6-(trifluoromethyl)pyridin-3-yl]phenyl} cyclopropane-carboxamide], for which the IC50 under setting [2] was 88.9 nM.

With `O=C(Nc1cc(-c2nnn[nH]2)c(-c2ccc(C(F)(F)F)nc2)cc1O)C1(c2ccc(Cl)cc2)CC1` [Example 226, 1-(4-chlorophenyl)-N-{2-hydroxy-5-(1H-tetrazol-5-yl)-4-[6-(trifluoromethyl)pyridin-3-yl]phenyl} cyclopropane-carboxamide], the half-maximal inhibitory concentration (IC50) under setting [2] was 105 nM.

Take `O=C(Nc1cc(-c2nnn[nH]2)c(-c2ccc(C(F)(F)F)nc2)cc1O)C1(c2ccc(F)cc2F)CC1` [Example 228, 1-(2,4-Difluorophenyl)-N-{2-hydroxy-5-(1H-tetrazol-5-yl)-4-[6-(trifluoromethyl)pyridin-3-yl]phenyl} cyclopropane-carboxamide]: under setting [2], the half-inhibitory concentration (IC50) came to 88.2 nM.

Consider `COc1ccc(-c2cc(F)c(NC(=O)C3(c4cc(Cl)ccc4F)CC3)cc2-c2nnn[nH]2)cc1` [Example 229, 1-(5-Chloro-2-fluorophenyl)-N-[5-fluoro-4′-methoxy-2-(1H-tetrazol-5-yl)biphenyl-4-yl]cyclopropane carboxamide], for which the IC50 under setting [2] worked out at 1280 nM.
